According to patent publication US12412916B2, “Fuel cell with polymer electrolyte membrane” (HYUNDAI MOTOR COMPANY, priority 2022, dated 2025):

Columns and labels:
[1] = assay type: physicochemical
Protocol: The solubility of each compound sample was observed by dissolving the same amount in a total of six solvents, including water, dimethylacetamide (DMAc), methanol, ethanol, 1-propanol and 2-propanol, and the results are shown in Table 1 and FIG. 4. In the results, if the phase separation is not visible with the naked eye and the sample is dissolved well, it is indicated as ∘, and if the phase separation is visible or the sample is not dissolved, it is indicated as x.

[2] = assay type: physicochemical; remark: listed apart in the source
Protocol: The thermal stability was confirmed through thermogravimetric analysis (TGA), and specifically, each compound sample was put into a heating furnace of the thermogravimetric analyzer, and the temperature was elevated from room temperature to 120° C. at 20° C./min and maintained for 10 minutes, thereby removing the remaining water and performing stabilization. Thereafter, the weight change of the sample was measured while cooling to 60° C. at 20° C./min and heating from 60° C. to 800° C. at 10° C./min in a nitrogen atmosphere, and the results are shown in Table 1 below.

CC(C)(C)c1cc(C(F)(F)C(F)(F)OC(F)(F)C(F)(F)S(=O)(=O)O)cc(C(C)(C)C)c1O [Example 1, sodium 2-(2-(3,5-di-tert-butyl-4-oxidophenyl)-1,1,2,2-tetrafluoroethoxy)-1,1,2,2-tetrafluoroethanesulfonate]
Solubility 1-propanol [1]: ○
Solubility 2-propanol [1]: ○
Solubility DMAc [1]: ○
Solubility Ethanol [1]: ○
Solubility Methanol [1]: ○
Solubility in water (in words) [1]: not dissolved in water
Thermal stability 5% decomposition temperature [2]: 255 °C
